Source: patent US8314110B2, “Compounds for treating mental disorders, and preparation and uses thereof” (priority 2007, dated 2012)

Key:
[1] = oral administration; cited from earlier work
[2] = Absolute bioavailability, beagle tests of the compound [formula (II)] and its prodrugs; assay type: in vivo; details: iv, dosage equimolar to the prodrug, compound [formula (II)] in blood
Procedure: Measurement of the Absolute Bioavailability—Beagle Tests of the Compound [Formula (II)] and its Prodrugs, the Compounds 1, 2, 3, 5, 6, 7 and 8
Twenty one beagles weighing about 10 kg were divided into 7 groups, and intragastrically administered the compounds 1, 2, 3, 5, 6, 7 and 8 at a dosage of 9.4 μmol/beagle, respectively. Blood samples were taken at the predetermined time points, and the concentrations of the active metabolite (the compound [formula (II)]) and prodrugs in blood were measured. In the meantime, three beagles weighing about 10 kg were intravenously administered with the compound [formula (II)] at a dosage equimolar to the prodrug, as the control group, and the concentrations of the compound [formula (II)] in blood were measured.
The prodrugs were immediately metabolized almost completely to form the active metabolite in beagle body, the compound [formula (II)] upon being administrated parenterally, and the concentrations of the original compounds were very low (see: FIG. 1C).

[3] = Dissolution of oral sustained-release capsules; assay type: physicochemical
Procedure: Granules were obtained by using conventional fluidized bed.
After the coating was dried, the coated granules were filled into hard gelatin capsules, each capsule contain 6 mg of the active ingredient (expressed in the compound [formula (II)]), and the coating degree was 6%. The capsules were subjected to dissolution tests according the method specified in the Pharmacopoeia of the People's Republic of China.

[4] = Metabolism of the compounds to the active component (compound [formula (II)]) in liver cells; details: human liver cells S9, 1 mM NADPH, 37° C., 2 hours; metabolized to the compound [formula (II)]
Description: After the precipitated proteins were removed by centrifugation, the obtained supernatant solution was adjusted to pH of 3 with concentrated potassium phosphate solution, and centrifuged again. The obtained supernatant was directly injected into HPLC for analysis.

[5] = Dissolution of the oral conventional tablets; assay type: physicochemical
Procedure: Tablets were obtained by direct tabletting, and each tablet contained 6 mg of active ingredient (expressed in the compound [formula (II)]).

Dissolution percentage of the active ingredient ([3]; dissolution time 2 hours) [%] | Dissolution percentage of the active ingredient ([3]; dissolution time 4 hours) [%] | Dissolution percentage of the active ingredient ([3]; dissolution time 8 hours) [%] | Dissolution percentage of the active ingredient ([3]; dissolution time 12 hours) [%] | Dissolution percentage of the active ingredient ([3]; dissolution time 24 hours) [%] | Metabolic rate (%) [4] [%] | Dissolution percentage of the active ingredient ([5]; dissolution time 2 hours) [%] | Dissolution percentage of the active ingredient ([5]; dissolution time 4 hours) [%] | Dissolution percentage of the active ingredient ([5]; dissolution time 8 hours) [%] | Compound | also measured
5.3 | 22 | 41 | 59 | 82 | 93 | 45 | 76 | 93 | CCCCCOC(=O)OC1CCCn2c1nc(C)c(CCN1CCC(c3noc4cc(F)ccc34)CC1)c2=O.Cl.Cl (stereo not drawn) [Compound 7, 3-{2-[4-(6-fluoro-1,2-benzoisoxazol-3-yl)-1-piperidinyl]ethyl}-2-methyl-4-oxo-6,7,8,9-tetrahydro-pyrido[1,2-α]pyrimidin-9-yl n-pentyl carbonate dihydrochloride] | –
– | – | – | – | – | 94 | – | – | – | Cc1nc2n(c(=O)c1CCN1CCC(c3noc4cc(F)ccc34)CC1)CCCC2OC(=O)Oc1ccccc1.Cl (stereo not drawn) [Compound 8, 3-{2-[4-(6-fluoro-1,2-benzoisoxazol-3-yl)-1-piperidinyl]ethyl}-2-methyl-4-oxo-6,7,8,9-tetrahydro-pyrido[1,2-α]pyrimidin-9-yl phenyl carbonate hydrochloride] | –
– | – | – | – | – | 89 | – | – | – | Cc1nc2n(c(=O)c1CCN1CCC(c3noc4cc(F)ccc34)CC1)CCCC2OC(=O)Oc1ccc([N+](=O)[O-])cc1.Cl (stereo not drawn) [Compound 9, 3-{2-[4-(6-fluoro-1,2-benzoisoxazol-3-yl)-1-piperidinyl]ethyl}-2-methyl-4-oxo-6,7,8,9-tetrahydro-pyrido[1,2-α]pyrimidin-9-yl p-nitrophenyl carbonate hydrochloride] | –

Second part, the compound before the results:

Compound | Dissolution percentage of the active ingredient ([3]; dissolution time 2 hours) [%] | Dissolution percentage of the active ingredient ([3]; dissolution time 4 hours) [%] | Dissolution percentage of the active ingredient ([3]; dissolution time 8 hours) [%] | Dissolution percentage of the active ingredient ([3]; dissolution time 12 hours) [%] | Dissolution percentage of the active ingredient ([3]; dissolution time 24 hours) [%] | Metabolic rate (%) [4] [%] | Dissolution percentage of the active ingredient ([5]; dissolution time 2 hours) [%] | Dissolution percentage of the active ingredient ([5]; dissolution time 4 hours) [%] | Dissolution percentage of the active ingredient ([5]; dissolution time 8 hours) [%] | also measured
Cc1nc2n(c(=O)c1CCN1CCC(c3noc4cc(F)ccc34)CC1)CCCC2O (stereo not drawn) [9-hydroxy risperidone, 3-{2-[4-(6-fluoro-benzo[d]isoxazol-3-yl)piperidin-1-yl]-ethyl}-9-hydroxy-2-methyl-6,7,8,9-tetrahydro-pyrido[1,2-α]pyrimidin-4-one] | – | – | – | – | – | – | – | – | – | absolute bioavailability [1]: 28%; Cmax ([2]; beagle, dog, 9.4 μmol/beagle): 360 ng/mL; half-life ([2]; beagle, dog, 9.4 μmol/beagle): 2.51 h; AUC [2]: 2422 nghr/ml
Cc1nc2n(c(=O)c1CCN1CCC(c3noc4cc(F)ccc34)CC1)CCCC2OC(=O)c1ccccc1 (stereo not drawn) [Compound 1, 3-{2-[4-(6-fluoro-1,2-benzoisoxazol-3-yl)-1-piperidinyl]-ethyl}-2-methyl-4-oxo-6,7,8,9-tetrahydro-pyrido[1,2-α]pyrimidin-9-yl benzoate] | 8.9 | 26 | 60 | 76 | 94 | 89 | 35 | 67 | 92 | –
Cc1ccc(C(=O)OC2CCCn3c2nc(C)c(CCN2CCC(c4noc5cc(F)ccc45)CC2)c3=O)cc1 (stereo not drawn) [Compound 2, 3-{2-[4-(6-fluoro-1,2-benzoisoxazol-3-yl)-1-piperidinyl]ethyl}-2-methyl-4-oxo-6,7,8,9-tetrahydro-pyrido[1,2-α]pyrimidin-9-yl 4-methylbenzoate] | – | – | – | – | – | 78 | – | – | – | –
CCOC(=O)OC1CCCn2c1nc(C)c(CCN1CCC(c3noc4cc(F)ccc34)CC1)c2=O.Cl (stereo not drawn) [Compound 5, 3-{2-[4-(6-fluoro-1,2-benzoisoxazol-3-yl)-1-piperidinyl]ethyl}-2-methyl-4-oxo-6,7,8,9-tetrahydro-pyrido[1,2-α]pyrimidin-9-yl ethyl carbonate hydrochloride] | – | – | – | – | – | 95 | – | – | – | –
Cc1nc2n(c(=O)c1CCN1CCC(c3noc4cc(F)ccc34)CC1)CCCC2OC(=O)OCC(C)C.Cl.Cl (stereo not drawn) [Compound 6, 3-{2-[4-(6-fluoro-1,2-benzoisoxazol-3-yl)-1-piperidinyl]ethyl}-2-methyl-4-oxo-6,7,8,9-tetrahydro-pyrido[1,2-α]pyrimidin-9-yl isobutyl carbonate dihydrochloride] | 8.8 | 19 | 42 | 68 | 89 | 92 | 43 | 79 | 98 | –
Cc1nc2n(c(=O)c1CCN1CCC(c3noc4cc(F)ccc34)CC1)CCCC2 [Risperidone] | – | – | – | – | – | – | – | – | – | absolute bioavailability [1]: at least 70%
